pIC50: −log10 of the molar value. Counter-ions that a name gives are not always drawn.
Experiments:
Dopamine D2 Receptor = Dopamine D2 Receptor (Rattus norvegicus, UniProt P61169); experiment: Dopamine D2 Receptor Binding Assay (displacement of [^3 H]raclopride); conditions: rat striatum membrane, [^3 H]raclopride (1 nM), 25° C., an hour
Method: 2. Dopamine D2 Receptor Binding Assay
Rat striatum membrane was used as a receptor preparation.
[^3 H]raclopride was used as [^3 H]-labeled ligand.
A binding reaction using the [^3 H]-labeled ligand was carried out according to the following method as described in Mol. J. Pharmacol., 43, 749(1993).
Preparation of Receptor Preparation: Rat striatum was homogenized in 50 mM Tris-hydrochloric acid buffer (pH 7.4), centrifuged at 48,000×g, and the precipitate was washed once with a Tris-hydrochloric acid buffer. The precipitate was suspended in 50 mM Tris-hydrochloric acid buffer (pH 7.4) containing 120 mM NaCl, 1.5 mM KCl, 2 mM CaCl2 and 1 mM MgCl2 to give a membrane preparation.
Dopamine D2 Receptor Binding Assay: The membrane preparation (0.5 mg of protein/ml), [^3 H]raclopride (1 nM) and each test drug were reacted at 25° C. for an hour.
After completion of the reaction, the reaction solution was filtered by suction through a glass filter (GF/B), and the radioactivity on the filter was determined by a liquid scintillation spectrometer.
The binding under the reaction in the presence of 10 μM haloperidol was defined as non-specific binding of [^3 H]raclopride, and the difference between total binding and non-specific binding was defined as specific binding.

human D4.2 receptor = biological target: T1, human D4.2 receptor (Homo sapiens, UniProt P21917, DEL265-296); experiment: Dopamine D4 Receptor Binding Assay (displacement of [^3 H]spiperone); conditions: human D4.2 in CHO cell membranes, pH 7.4, 27° C., 2 hours
T1 sequence (P21917 with tags, fused parts or gaps DEL265-296): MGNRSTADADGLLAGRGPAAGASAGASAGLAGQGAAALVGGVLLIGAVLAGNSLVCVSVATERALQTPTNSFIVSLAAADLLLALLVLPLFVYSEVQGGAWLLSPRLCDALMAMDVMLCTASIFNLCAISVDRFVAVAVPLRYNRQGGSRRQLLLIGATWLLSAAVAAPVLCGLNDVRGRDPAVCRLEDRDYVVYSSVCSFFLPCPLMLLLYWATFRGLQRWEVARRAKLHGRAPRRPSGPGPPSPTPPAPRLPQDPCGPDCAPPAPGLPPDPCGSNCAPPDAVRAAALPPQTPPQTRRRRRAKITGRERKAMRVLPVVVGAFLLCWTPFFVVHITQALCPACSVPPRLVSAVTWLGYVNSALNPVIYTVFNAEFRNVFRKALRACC
Method: 1. Dopamine D4 Receptor Binding Assay
Chinese hamster ovarium (CHO) cell membranes wherein human D4.2 receptor was expressed were used as a receptor preparation.
[^3 H]spiperone was used as [^3 H]-labeled ligand.
A binding reaction using the [^3 H]-labeled ligand was carried out according to the following method as described in Eur. J. Pharmacol., 233, 173(1993).
Dopamine D4.2 Receptor Binding Assay: The CHO cell membranes wherein human D4.2 receptor was expressed, [^3 H]spiperone ([…]) and each test drug were reacted in 50 mM Tris-hydrochloric acid buffer (pH 7.4) containing 5 mM EDTA, 1.5 mM CaCl2, 5 mM KCl and 120 mM NaCl at 27° C. for 2 hours.
After completion of the reaction, the reaction solution was filtered by suction through a glass filter (GF/B), and the radioactivity on the filter was measured by a liquid scintillation spectrometer.
The binding under the reaction in the presence of 10 μM haloperidol was defined as non-specific binding of [^3 H]spiperone, and the difference between the total binding and the non-specific binding was defined as specific binding.

[1] = system: drug-resistant schizophrenia and negativism; conditions: clinical investigation, Arch. Gen. Psych., 45, 789-796 (1988); cited from earlier work
[2] = Summary and Clinical Data, Sandoz, Canada Inc. (1990); cited from earlier work
dopamine D4 receptors = conditions: Nature, 350, 610-614 (1991); cited from earlier work

Chain of Dopamine D2 Receptor (P61169 whole entry): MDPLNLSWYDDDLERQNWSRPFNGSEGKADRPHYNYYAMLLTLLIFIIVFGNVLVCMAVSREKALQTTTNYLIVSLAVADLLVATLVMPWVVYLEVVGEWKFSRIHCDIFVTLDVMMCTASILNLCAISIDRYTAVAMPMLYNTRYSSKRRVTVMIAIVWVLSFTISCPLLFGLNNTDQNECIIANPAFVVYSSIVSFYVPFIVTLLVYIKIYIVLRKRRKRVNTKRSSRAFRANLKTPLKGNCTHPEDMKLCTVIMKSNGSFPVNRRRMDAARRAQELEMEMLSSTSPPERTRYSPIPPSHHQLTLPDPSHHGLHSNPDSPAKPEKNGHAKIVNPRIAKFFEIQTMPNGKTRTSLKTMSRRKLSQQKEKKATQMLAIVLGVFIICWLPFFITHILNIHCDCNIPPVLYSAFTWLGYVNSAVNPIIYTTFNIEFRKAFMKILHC

Row | Structure (SMILES) | pIC50 (Dopamine D2 Receptor) | pIC50 (human D4.2 receptor) | further results
1 | Cc1ccc(C=C2CCN(CCc3cn[nH]c3-c3ccc(F)cc3)CC2)cc1 [Compound A-06] | 6.77 | 8.55 | 
2 | CN1CCN(C2=Nc3cc(Cl)ccc3Nc3ccccc32)CC1 [clozapine] |  |  | effect on drug-resistant schizophrenia and negativism [1]: effective on drug-resistant schizophrenia and negativism; extrapyramidal diseases [1]: hardly causes extrapyramidal diseases; blood disorder (agranulocytosis) [2]: serious defect of causing blood disorder called agranulocytosis; death from agranulocytosis [2]: cases of death therefrom have been reported; affinity for dopamine D4 receptors relative to dopamine D2 receptors (dopamine D4 receptors): higher than that for dopamine D2 receptors
3 | Oc1nc(-c2ccc(F)cc2)c(CCN2CCC(=Cc3cccc(F)c3)CC2)s1 [Compound A-10, 2-hydroxy-4-(4-fluorophenyl)-5-[2-[4-(3-fluorobenzylidene)piperidin-1-yl]ethyl]thiazole] | 7.13 | 8.71 | 
4 | Fc1ccc(-c2[nH]ncc2CCN2CCC(=Cc3cccc(F)c3)CC2)cc1 [Compound A-02] | 7.49 | 8.95 | 
5 | Fc1ccc(-c2ncncc2CCN2CCC(=Cc3ccccc3F)CC2)cc1 [Compound A-12, 4-(4-fluorophenyl)-5-[2-[4-(2-fluorobenzylidene)piperidin-1-yl]ethyl]pyrimidine dihydrochloride] | 6.44 | 8.67 | 
6 | Fc1ccc(-c2nc(S)ncc2CCN2CCC(=Cc3ccccc3F)CC2)cc1 [Compound A-13, 4-(4-fluorophenyl)-5-[2-[4-(2-fluorobenzylidene)piperidin-1-yl]ethyl]-2-mercaptopyrimidine] | < 6.00 | 8.87 | 
7 | Fc1ccc(C=C2CCN(CCc3cn[nH]c3-c3ccc(F)cc3)CC2)cc1 [Compound A-01] | 6.82 | 8.91 | 
8 | Cc1ccc(-c2[nH]ncc2CCN2CCC(=Cc3ccc(F)cc3)CC2)cc1 [Compound A-04] | 7.25 | 8.71 | 
9 | O=C(c1ccc(F)cc1)C1CCN(CCc2sc(O)nc2-c2ccc(F)cc2)CC1 [Compound A-09] | 6.97 | 8.55 | 
10 | CSc1nc(-c2ccc(F)cc2)c(CCN2CCC(=Cc3cccc(F)c3)CC2)[nH]1 [Compound A-08] | 7.21 | 8.95 | 
11 | Fc1ccc(-c2[nH]ncc2CCN2CCC(=Cc3ccccc3F)CC2)cc1 [Compound A-03, 5-(4-fluorophenyl)-4-[2-[4-(2-fluorobenzylidene)piperidin-1-yl]ethyl]pyrazole oxalate] | 7.58 | 9.07 | 
12 | Nc1ncc(CCN2CCC(=Cc3ccccc3F)CC2)c(-c2ccc(F)cc2)n1 [Compound A-16] | 6.89 | 8.71 | 
